Measurements from article PMC4893628, “Chalcone-based Selective Inhibitors of a C4 Plant Key Enzyme as Novel Potential Herbicides” (Scientific Reports, 2016).
Where two headings read alike, the source gives them in different places.

Key:
[1] = target: T1, F. trinervia PEPC (Flaveria trinervia, UniProt P30694); assay: biochemical; format: biochemical
T1 construct: the full-length ppcA gene of PEPC from F. trinervia (EMBL-Bank X61304); made in house; host or cells: Escherichia coli BL21(DE3)
T1 sequence (P30694 1-966): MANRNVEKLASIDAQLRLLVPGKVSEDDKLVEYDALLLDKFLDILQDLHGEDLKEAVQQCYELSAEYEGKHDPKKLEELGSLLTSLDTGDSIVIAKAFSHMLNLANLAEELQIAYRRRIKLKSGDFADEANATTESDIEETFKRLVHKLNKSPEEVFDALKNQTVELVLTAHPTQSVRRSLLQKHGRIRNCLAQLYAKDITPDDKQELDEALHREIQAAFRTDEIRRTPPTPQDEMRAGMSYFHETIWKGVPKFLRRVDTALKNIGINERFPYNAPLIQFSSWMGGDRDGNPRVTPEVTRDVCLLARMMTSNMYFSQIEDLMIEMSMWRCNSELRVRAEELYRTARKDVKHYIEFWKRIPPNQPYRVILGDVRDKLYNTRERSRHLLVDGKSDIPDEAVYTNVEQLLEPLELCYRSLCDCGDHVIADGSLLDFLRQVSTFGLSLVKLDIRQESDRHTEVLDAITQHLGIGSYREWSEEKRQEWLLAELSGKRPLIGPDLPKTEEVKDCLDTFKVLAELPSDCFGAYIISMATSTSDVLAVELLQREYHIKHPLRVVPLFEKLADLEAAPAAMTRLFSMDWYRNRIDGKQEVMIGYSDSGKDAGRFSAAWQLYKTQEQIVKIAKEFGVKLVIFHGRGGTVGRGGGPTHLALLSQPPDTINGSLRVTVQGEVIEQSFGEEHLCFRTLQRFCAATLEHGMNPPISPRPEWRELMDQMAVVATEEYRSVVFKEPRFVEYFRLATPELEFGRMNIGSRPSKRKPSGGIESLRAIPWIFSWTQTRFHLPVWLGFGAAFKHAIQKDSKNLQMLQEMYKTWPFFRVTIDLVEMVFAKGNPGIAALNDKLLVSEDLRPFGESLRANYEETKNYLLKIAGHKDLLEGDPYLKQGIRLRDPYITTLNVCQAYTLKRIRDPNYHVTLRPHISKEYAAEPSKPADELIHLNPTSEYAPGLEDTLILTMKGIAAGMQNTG

[2] = system: Escherichia coli K-12 MG1655; assay: Bacterial growth in microscale cultivation, E. coli; format: cell-based; conditions: relative to control; for activity at 0.3 µM / activity at 3 µM / activity at 30 µM: Escherichia coli
Method in brief: (§1)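 In a BioLector microscale system shaken at 1200 rpm, growth was tracked by backscatter at 620 nm, and final signal, growth rate (h⁻¹) and lag-phase length were scored against DMSO-only controls. Starting OD600 was 0.5, or 0.25 for B. subtilis. Inhibitors came from DMSO stocks, with trans-chalcone capped at 400 μM and 2'-hydroxychalcone at 100 μM.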

[3] = system: Pseudomonas putida KT2440; assay: Bacterial growth in microscale cultivation, P. putida; format: cell-based; conditions: relative to control; for activity at 0.3 µM / activity at 3 µM / activity at 30 µM: Pseudomonas putida
Method in brief: as §1

[4] = system: Bacillus subtilis 168; assay: Bacterial growth in microscale cultivation, B. subtilis; format: cell-based; conditions: relative to control
Method in brief: as §1

O=C(/C=C/c1cc(O)c(O)c(O)c1)c1ccc(O)cc1O [Compound 9, 2′,4′,3,4,5-Pentahydroxychalcone]
Selectivity C4/C3 ([1]; C4 PEPC over C3 isoform): 8.1 fold | IC50 ([1]; C4 PEPC, read-out: IC50 F. trinervia PEPC): 4.2 ± 1.4 µM | activity at 0.3 µM ([2]; MG1655, complex medium, 0.3 µM, read-out: Final Backscatter): 100% | activity at 0.3 µM ([2]; MG1655, complex medium, 0.3 µM, read-out: Growth rate): 103% | activity at 3 µM ([2]; MG1655, complex medium, 3 µM, read-out: Final Backscatter): 99.7% | activity at 3 µM ([2]; MG1655, complex medium, 3 µM, read-out: Growth rate): 95.4% | activity at 30 µM ([2]; MG1655, complex medium, 30 µM, read-out: Final Backscatter): 98.2% | activity at 30 µM ([2]; MG1655, complex medium, 30 µM, read-out: Growth rate): 87.6% | activity at 0.3 µM ([2]; MG1655, minimal medium, 0.3 µM, read-out: Final Backscatter): 100% | activity at 0.3 µM ([2]; MG1655, minimal medium, 0.3 µM, read-out: Growth rate): 106% | activity at 3 µM ([2]; MG1655, minimal medium, 3 µM, read-out: Final Backscatter): 101% | activity at 3 µM ([2]; MG1655, minimal medium, 3 µM, read-out: Growth rate): 110% | activity at 30 µM ([2]; MG1655, minimal medium, 30 µM, read-out: Final Backscatter): 102% | activity at 30 µM ([2]; MG1655, minimal medium, 30 µM, read-out: Growth rate): 110% | Lag Phase ([2]; complex medium, 0.3 µM): 103,4% | Lag Phase ([2]; complex medium, 3 µM): 103,4% | Lag Phase ([2]; complex medium, 30 µM): 110,3% | Lag Phase ([2]; minimal medium, 0.3 µM): 100,0% | Lag Phase ([2]; minimal medium, 3 µM): 98,2% | Lag Phase ([2]; minimal medium, 30 µM): 96,4% | activity at 0.3 µM ([3]; KT2440, complex medium, 0.3 µM, read-out: Final Backscatter): 94.7% | activity at 0.3 µM ([3]; KT2440, complex medium, 0.3 µM, read-out: Growth rate): 99.4% | activity at 3 µM ([3]; KT2440, complex medium, 3 µM, read-out: Final Backscatter): 96.9% | activity at 3 µM ([3]; KT2440, complex medium, 3 µM, read-out: Growth rate): 101% | activity at 30 µM ([3]; KT2440, complex medium, 30 µM, read-out: Final Backscatter): 93% | activity at 30 µM ([3]; KT2440, complex medium, 30 µM, read-out: Growth rate): 102% | activity at 0.3 µM ([3]; KT2440, minimal medium, 0.3 µM, read-out: Final Backscatter): 93.1% | activity at 0.3 µM ([3]; KT2440, minimal medium, 0.3 µM, read-out: Growth rate): 109% | activity at 3 µM ([3]; KT2440, minimal medium, 3 µM, read-out: Final Backscatter): 96.5% | activity at 3 µM ([3]; KT2440, minimal medium, 3 µM, read-out: Growth rate): 108% | activity at 30 µM ([3]; KT2440, minimal medium, 30 µM, read-out: Final Backscatter): 98.3% | activity at 30 µM ([3]; KT2440, minimal medium, 30 µM, read-out: Growth rate): 108% | Lag Phase ([3]; complex medium, 0.3 µM): 101,2% | Lag Phase ([3]; complex medium, 3 µM): 102,4% | Lag Phase ([3]; complex medium, 30 µM): 99,4% | Lag Phase ([3]; minimal medium, 0.3 µM): 99,0% | Lag Phase ([3]; minimal medium, 3 µM): 99,3% | Lag Phase ([3]; minimal medium, 30 µM): 99,7% | activity at 0.3 µM ([4]; Bacillus subtilis, 168, complex medium, 0.3 µM, read-out: Final Backscatter): 100% | activity at 0.3 µM ([4]; Bacillus subtilis, 168, complex medium, 0.3 µM, read-out: Growth rate): 111% | activity at 3 µM ([4]; Bacillus subtilis, 168, complex medium, 3 µM, read-out: Final Backscatter): 99.7% | activity at 3 µM ([4]; Bacillus subtilis, 168, complex medium, 3 µM, read-out: Growth rate): 112% | activity at 30 µM ([4]; Bacillus subtilis, 168, complex medium, 30 µM, read-out: Final Backscatter): 98.6% | activity at 30 µM ([4]; Bacillus subtilis, 168, complex medium, 30 µM, read-out: Growth rate): 104% | activity at 0.3 µM ([4]; Bacillus subtilis, 168, minimal medium, 0.3 µM, read-out: Final Backscatter): 104% | activity at 0.3 µM ([4]; Bacillus subtilis, 168, minimal medium, 0.3 µM, read-out: Growth rate): 99.6% | activity at 3 µM ([4]; Bacillus subtilis, 168, minimal medium, 3 µM, read-out: Final Backscatter): 103% | activity at 3 µM ([4]; Bacillus subtilis, 168, minimal medium, 3 µM, read-out: Growth rate): 101% | activity at 30 µM ([4]; Bacillus subtilis, 168, minimal medium, 30 µM, read-out: Final Backscatter): 107% | activity at 30 µM ([4]; Bacillus subtilis, 168, minimal medium, 30 µM, read-out: Growth rate): 90.7% | Lag Phase ([4]; complex medium, 0.3 µM): 100,0% | Lag Phase ([4]; complex medium, 3 µM): 100,0% | Lag Phase ([4]; complex medium, 30 µM): 97,4% | Lag Phase ([4]; minimal medium, 0.3 µM): 91,7% | Lag Phase ([4]; minimal medium, 3 µM): 98,8% | Lag Phase ([4]; minimal medium, 30 µM): 94,1%
